Among the data in publication PMC5934630 (2018) are KD values, retold here.

SMILES strings stand for the structures.

For orientation: KD means the free concentration of one partner at which half of the binding sites on the other are occupied at equilibrium, for simple one-to-one binding.

For assay [1], the system named is MA (DNA, aptamer) CTTACGACTCAGGCATTTTGCCGGGTAACGAAGTTACTGTCGTAAG
Put plainly: ITC. The conditions noted are these: Na+ 20 mM, Mg2+ 0.5 mM.

In assay [2] the test system is MA-L (DNA, aptamer) CAGAACTTACGACTCAGGCATTTTGCCGGGTAACGAAGTTACTGTCGTAAG
Put plainly: ITC. The conditions noted are these: Na+ 20 mM, Mg2+ 0.5 mM.

On to `CCCC(C(=O)c1ccc2c(c1)OCO2)N1CCCC1` (centres unmarked), for which the KD in assay [1] is 6.1 ± 0.2 µM; in assay [2], 6.2 µM.
